Data reported in patent US4060526A, “1-Heterocyclic alkyl-1,2,3,4-tetrahydroquinazolinones and analgesic intermediates thereof” (priority 1976, dated 1977).
Where two headings read alike, the source gives them in different places.

Legend:
sciatic nerve = experiment: local anesthesia, sciatic block; format: in vivo, mice; conditions: Pos. = blockade took place and leg and foot returned to normal after a time
Description: An effective local anesthetic causes a blockade of the nerves of the lower leg and foot causing the animal, when permitted to walk, to do so flatfooted, rather than its normal habit, up on its toes. Alternatively an effective local anesthetic, by the sciatic block method, can cause the leg to be dragged by the animal when walking so long as effective sciatic block persists. Toxic agents may effect the same apparent results, but the blockade effected by toxic agents is irreversible. However, in contrast to toxic agents, an effective local anesthetic permits recovery of the use of the leg and foot after a period of time.
The mice used in the sciatic block test were placed in a holder with their hind limbs extended. A quantity of the test compound (e.g. 0.05 ml) was injected into the area surrounding the sciatic nerve at the juncture of the two major leg muscles. Effective local anesthetic activity is indicated in Table IV ("Pos." --meaning that the blockade did take place and that the leg and foot returned to normal after a time.)

NARCOTIC ANTAGONISM = experiment: narcotic antagonism (Table IV); format: in vivo; conditions: I.P.
Description: (§1) The compounds of this invention were tested for their ability to antagonize narcotic analgesics by two different tests. […] Another test used for narcotic antagonist activity was published by Harris & Pearson. This test is modification of the D'Amour & Smith method.
(§2) In the original method the time required for rats to flick their tails following application of a heat stimulus is taken as a measure of analgesic potency.

in vivo [1] = experiment: in vivo
MOUSE TAIL STIMULATION = experiment: mouse tail stimulation analgesia; conditions: for ED50: Mus musculus, sc, read-out: MOUSE TAIL STIMULATION ED50
heat stimulus [2] = experiment: D'Amour Smith Rat Tail Flick; format: in vivo; conditions: Sub. cut.
Excerpt: as §2

[3] = phenylbenzoquinone writhing test, mouse; format: in vivo; conditions: mouse, in vivo, po, Mouse p.o.
Description: (§3) In addition to the hot plate method, the writhing test described by Sigmund et al., Soc. Exp. Biol. and Med. 95:729 (1957) has been applied in both rats and mice as further indication of analgesics. […] The stimulus of intraperitoneal injection of phenylbenzoquinone results in a writhing syndrome characterized by periodic twisting and stretching of the body with extension of the hind legs. […] The dose of compound protecting 50% of the animals is determined and expressed as the ED50. Ten animals are used at each dose level.

[4] = test system: phenylbenzoquinone writhing; experiment: phenylbenzoquinone writhing test, mouse; format: in vivo; conditions: po; Mouse p.o.
Description: as §3

in vivo [5] = conditions: mouse
[6] = test system: oxymorphone induced mydriasis; experiment: antagonism of oxymorphone induced mydriasis; format: in vivo, mice; conditions: mice; words
Description: as §1

in vivo [7] = conditions: mouse; remark: listed apart in the source
heat stimulus [8] = experiment: mouse hot plate test (Eddy and Leimbach, modified); conditions: Mus musculus, read-out: Hot Plate ED50

| Structure (SMILES) | LOCAL ANESTHESIA SCIATIC BLOCK (sciatic nerve) | NARCOTIC ANTAGONISM (NARCOTIC ANTAGONISM) | LD50 (in vivo [1]; ip) [mg/kg] | NOAEL (in vivo [1]; ip) [mg/kg] | other results |
| --- | --- | --- | --- | --- | --- |
| CCOC(=O)C1(c2ccccc2)CCN(C)CC1 [Merperidine, reference compound] | Positive | Negative | 130 | 30 | ED50 (MOUSE TAIL STIMULATION): 1.8 mg/kg |
| CC(CNc1ccccc1C(N)=O)N1CCN(c2ccccc2)CC1.Cl (stereo not shown) [XIV, 2-[2-(4-phenyl-1-piperazinyl)propylamino]benzamide hydrochloride] | Positive | Positive | 300 | 10 |  |
| Cl.NC(=O)c1cc(N)ccc1NCCN1CCN(c2ccccc2)CC1 [XXI, 5-Amino-2-(2-[4-phenyl-1-piperazinyl]-ethylamino)benzamide hydrochloride] | Positive | Positive | 200 | 10 |  |
| NC(=O)c1ccccc1N(CCN1CCC(O)(c2ccccc2)CC1)Cc1ccccc1 [Example XXVII (Step 4 Title Compound), 2-[Benzyl-(2-[4-hydroxy-4-phenylpiperidyl]ethyl)amino]benzamide] |  |  | 60 | 10 |  |
| Cl.O=C(c1ccccc1NCCN1CCN(c2ccccc2)CC1)N1CCOCC1 [XVI, N-(2-[2-(1-phenyl-4-piperazinyl)ethylamino]benzoyl) morpholine hydrochloride] |  | Positive | 250 | 10 | ED50 (MOUSE TAIL STIMULATION): 30 mg/kg |
| CC(CN1CCN(c2ccccc2)CC1)Nc1ccccc1C(N)=O (stereo not shown) [XXXII, 2-[1-methyl-2-(4-phenyl-1-piperazinyl)ethylamino]benzamide] |  | Negative | 300 | 3 |  |
| Cl.NC(=O)c1ccccc1NCCN1CCN(CCc2ccccc2)CC1 [XVII, 2-[2-(4-phenethyl-1-piperazinyl)ethylamino]benzamide hydrochloride] | Positive | Negative | 70 | 10 |  |
| CCC(=O)OC1(c2ccccc2)CCN(CCNc2ccccc2C(N)=O)CC1 [Example XXVII, 2-[2-(4-propionoxy-4-phenylpiperidyl)ethylamino]benzamide] |  |  | 60 | 0.1 | ED50 (MOUSE TAIL STIMULATION): 0.03 mg/kg |
| NC(=O)c1cc([N+](=O)[O-])ccc1NCCN1CCN(c2ccccc2)CC1 [XIX, 5-Nitro-2-(2-[4-phenyl-1-piperazinyl]ethylamino)benzamide] |  | Negative |  |  | LD50 (in vivo [1]; po): 300 mg/kg |
| O=C(Nc1ccccc1)c1ccccc1NCCN1CCN(c2ccccc2)CC1 [XXII, 2-[2-(1-Phenyl-4-piperazinyl)ethylamino]-N-phenylbenzamide] | Negative | Positive | 300 | 0.3 |  |
| CS(=O)(=O)O.O=C1NC(c2ccccc2)N(CCN2CCC(O)(c3ccccc3)CC2)c2ccccc21 (stereo not shown) [Example XXVI, 1-[2-(4-Hydroxy-4-phenylpiperidino)ethyl]-2-phenyl-1,2,3,4-tetrahydro-4-quinazolinone Methanesulfonate] | Positive | Negative | 200 | 3 |  |
| CCC(=O)OC1(c2ccccc2)CCN(CCN(Cc2ccccc2)c2ccccc2C(=O)NC)CC1 [XXVIII, 2-[Benzyl-(2-[4-propionoxy-4-phenylpiperidyl]ethyl)amino]-N-methyl-benzamide] |  |  |  |  | LD50 (in vivo [1]; po): 250 mg/kg |
| Cl.Cl.Cl.NC(=O)c1ccccc1NCCN1CCN(Cc2ccccc2)CC1 [Example XX, 2-(2-[4-Benzyl-1-piperazinyl]ethylamino)benzamide trihydrochloride] |  | Positive | 100 | 10 |  |
| CN1CC[C@]23c4c5ccc(O)c4O[C@H]2[C@@H](O)C=C[C@H]3[C@H]1C5 [Morphine, reference compound] |  | Negative |  |  | Rat Tail Flick ED50 (heat stimulus [2]): 15 mg/kg; MOUSE TAIL STIMULATION ED50 (MOUSE TAIL STIMULATION; S.C.): 1.5 mg/kg |
| CCC(=O)OC1(c2ccccc2)CCN(CCN(Cc2ccccc2)c2ccccc2C(N)=O)CC1 [Example XXVII (Step 5 Title Compound)] |  | Negative | 100 | 3 |  |
| CCC(=O)OC1(c2ccccc2)CCN(CCNc2ccccc2C(=O)NC)CC1 [XXIX, 2-[2-(4-Propionoxy-4-phenylpiperidyl)ethylamino]-N-methyl-benzamide] |  |  |  |  | LD50 (in vivo [1]; po): 16 mg/kg |
| COc1ccc2c3c1O[C@H]1[C@@H](O)C=C[C@H]4[C@@H](C2)N(C)CC[C@@]341 [Codeine, reference compound] |  |  |  |  | selectivity ratio ([3]; HNSD = highest dose without gross symptoms, read-out: HNSD./ED50 Writhing): 5.9; selectivity ratio ([3]; read-out: LD50 /ED50 Writhing): 32; ED50 [4]: 17 mg/kg; LD50 at 48 h (in vivo [5]; ip): 104 mg/kg; LD50 at 48 h (in vivo [5]; po): 540 mg/kg; effect of narcotic agents on pupil size [6]: no change or an increase in the pupil size; selectivity ratio (in vivo [7]; ip, HNSD./ED50 H.P., Mouse i.p., HNSD = highest dose without gross symptoms): 2.6; selectivity ratio (in vivo [7]; ip, LD50 /ED50 H.P., Mouse i.p.): 8.7; selectivity ratio (in vivo [7]; po, HNSD./ED50 H.P., Mouse p.o., HNSD = highest dose without gross symptoms): 5; selectivity ratio (in vivo [7]; po, LD50 /ED50 H.P., Mouse p.o.): 27; ED50 (heat stimulus [8]; ip): 12 mg/kg; ED50 (heat stimulus [8]; po): 20 mg/kg |
| COc1ccc(NCCN2CCN(c3ccccc3)CC2)c(C(N)=O)c1 [XVIII, 5-Methoxy-2-(2[4-phenyl-1-piperazinyl]ethylamino)benzamide] |  | Positive | 300 | 1 |  |
| CNC(=O)c1ccccc1NCCN1CCN(c2ccccc2)CC1 [XV, 2-(2-[4-phenyl-1-piperazinyl]ethylamino)-N-methylbenzamide] | Positive | Positive | 200 | 3 |  |
| CCOc1ccc(NCCN2CCN(c3ccccc3)CC2)c(C(N)=O)c1 [XXIV, 5-Ethoxy-2-(2-[4-phenyl-1-piperazinyl]ethylamino)benzamide] |  | Negative | 300 | 30 |  |
| CC(C)=CCN1CCC2(C)c3cc(O)ccc3CC1C2C (stereo not shown) [Pentazocine, reference compound] | Positive | Positive | 140 | 30 |  |
| COC(=O)c1ccccc1NCCN1CCN(c2ccccc2)CC1 [XII, Methyl 2-[2-(1-phenyl-4-piperazinyl)ethylamino]benzoate] | Positive | Negative | 300 | 300 |  |
| COc1ccc(N2CCN(CCNc3ccccc3C(N)=O)CC2)cc1 [VII, 2-[2-(1-[p-Methoxyphenyl]-4-piperazinyl)ethylamino] benzamide] | Positive | Positive | 300 | 3 |  |
| NC(=O)c1ccccc1NCCN1CCC(c2ccccc2)CC1 [XXX, 2-[2-(4-phenyl-1-piperidyl)ethylamino]benzamide] | Positive | Positive | 200 | 10 |  |
| NC(=O)c1ccccc1NCCN1CCCCC1 [XXXI, 2-[N-β-(1-Piperidinoethyl)amino]benzamide] |  | Positive | 40 | 10 |  |
